Where two headings read alike, the source gives them in different places.
Legend:
Solubility = format: physicochemical
[1] = Environmental stability (heat, acid, base); format: physicochemical
CLL = experiment: Compound 1 besylate monotherapy in patients with CLL; format: in vivo
relapsed/refractory CLL = conditions: cited from earlier work
[2] = monotherapy, as of Sep. 11, 2012
[3] = 25 mg for 21 days of every 28-day cycle

C=CC(=O)Nc1cccc(Nc2nc(Nc3ccc(OCCOC)cc3)ncc2F)c1.O=S(=O)(O)c1ccccc1 [Compound 1 besylate, N-(3-(5-fluoro-2-(4-(2-methoxyethoxyl)phenylamino)pyrimidin-4-ylamino)phenyl)acrylamide benzenesulfonic acid salt]
solubility (Solubility; ethanol, organic solvent or mixture, read-out: solubility in ethanol): ~10000 µg/mL | solubility (Solubility; water, read-out: solubility in water): ~160 µg/mL | environmental instabilities (i.e. heat, acid, base) [1]: no environmental instabilities | patients who experienced early increases in absolute lymphocyte counts (ALC) (CLL; [2]): 28 of 33 | patients who experienced reductions in lymph node size (CLL; [2]): 15 of 23 | patients with CLL who experienced stable disease and continue on treatment (CLL; [2]): 35 out of 43

C=CC(=O)Nc1cccc(Nc2nc(Nc3ccc(OCCOC)cc3)ncc2F)c1 [Compound 1, N-(3-(5-fluoro-2-(4-(2-methoxyethoxyl)phenylamino)pyrimidin-4-ylamino)phenyl)acrylamide]
maximum tolerated dose (MTD) (CLL; single agent): has not yet been reached

Nc1cccc2c1CN(C1CCC(=O)NC1=O)C2=O (centres unmarked) [lenalidomide, 3-(4-amino-1-oxo-1,3-dihydro-2H-isoindol-2-yl)piperidine-2,6-dione]
Complete Response [CR] (relapsed/refractory CLL; [3]): 18% | Partial Response [PR] (relapsed/refractory CLL; [3]): 36% | median progression-free survival (PFS) time (relapsed/refractory CLL; [3]): 19.4 months | median time to best response (relapsed/refractory CLL; [3]): 5.9 months | overall response (relapsed/refractory CLL; [3]): 53% | Clinical responses (CR or PR) (relapsed/refractory CLL; subjects refractory to fludarabine): 30% | Clinical responses (CR or PR) (relapsed/refractory CLL; subjects with del (11)(q23) and/or del (17)(p13.1) adverse cytogenetics): 47%
